What all share (type): in vivo, C57BL/6NTac mice
The subject of assay [1] is animal model of stress depression induced by chronic restrained stress (CRS). The experiment in a line: Tail suspension test (TST) in CRS-induced stress depression model. The following applies: CRS+BA group, oral daily 1 hour before restraint, day 14, last 4 minutes of 6-minute test; dose not stated. The procedure:
In order to confirm the antidepressant efficacy of bornyl acetate on the animal model of stress depression, an animal model of depression induced by chronic restrained stress (CRS) was prepared. Specifically, the animal model, 8-week-old male C57BL/6NTac mice after birth (Narabiotechnology, Korea; weight 22-24 g) had been stabilized for 1 week. A 50 ml conical tube (SPL Life sciences, Pocheon, Korea) was punched to make a hole, thereby making a restraint frame. The mice were put in the frame and restrained for 2 hours every day for 14 days. After restraint, the mice were allowed to freely ingest water and food in the home cage. On the 14th day after chronic restrained stress was induced, the tail tip of the mouse was fixed and hanged upside down on a horizontal bar (1 cm in diameter) installed at a height of about 50 cm from the floor, and then the time of immobility was measured. Measurements were made during the last 4 minutes of the 6-minute test period. Bornyl acetate (25, 50 and 100 mg/kg) of the present invention was dissolved in 0.1 M PBS, and the mixture was orally administered 1 hour before inducing restrained stress every day. Bornyl acetate was administered in a dose per individual of 100 μl.

A further assay relates to Iba-1. Description: Immunohistochemical staining for Iba-1 (microglia activation) in brain of CRS model. The note with it: hippocampus and amygdala, CRS+BA group, 100 mg/kg oral. The protocol:
In order to confirm the antidepressant efficacy of bornyl acetate on the animal model of stress depression, an animal model of depression induced by chronic restrained stress (CRS) was prepared. Specifically, the animal model, 8-week-old male C57BL/6NTac mice after birth (Narabiotechnology, Korea; weight 22-24 g) had been stabilized for 1 week. A 50 ml conical tube (SPL Life sciences, Pocheon, Korea) was punched to make a hole, thereby making a restraint frame. The mice were put in the frame and restrained for 2 hours every day for 14 days. After restraint, the mice were allowed to freely ingest water and food in the home cage. Bornyl acetate (100 mg/kg) was administered orally 1 hour before induction of restraint stress every day. 14 days later, the mice were anesthetized, and 4% paraformaldehyde was perfused into the heart. Then, the mice were fixed, and the brain was excised. The excised brain was immersed in 4% paraformaldehyde and fixed at 4° C. for one more day. It was then changed to 30% sucrose, and the brain was stored at 4° C. for 3 days or more to prevent freeze damage. The brain was cut into a thickness of 30 μm using a cryocut microtome to prepare the frozen sections. […]

The next assay concerns CD11b protein. Description: Western blot of CD11b protein in brain (hippocampus and amygdala) of CRS model. The note with it: CRS+BA group. The protocol: In order to confirm the antidepressant efficacy of bornyl acetate on the animal model of stress depression, an animal model of depression induced by chronic restrained stress (CRS) was prepared. Specifically, the animal model, 8-week-old male C57BL/6NTac mice after birth (Narabiotechnology, Korea; weight 22-24 g) had been stabilized for 1 week. A 50 ml conical tube (SPL Life sciences, Pocheon, Korea) was punched to make a hole, thereby making a restraint frame. The mice were put in the frame and restrained for 2 hours every day for 14 days. After restraint, the mice were allowed to freely ingest water and food in the home cage. The hippocampus and amygdala of the brain were excised. They were added to 200 μl of a protein lysis buffer (10 mM Tris, 0.5 mM EDTA, 0.25 M sucrose), and proteins were isolated using a grinder. The isolated protein was quantified by the Bradford method (Bio-rad, USA) using bovine serum albumin (BSA, Sigma, USA), and then 25 μg of the protein was separated by 10% sodium dodecyl sulfate-polyacrylamide gel electrophoresis (SDS-PAGE) and transferred to polyvinylidene difluoride (PVDF) membrane (Gendepot, UK). PVDF membranes were blocked in 5% skimmed milk (BD, USA) for 1 hour. […] Identification and quantitative analysis of proteins were analyzed using an imaging device ChemiDoc XRS+ (Bio-Rad). […]

With `CC(=O)OC1CC2CCC1(C)C2(C)C` (stereo not shown) [BA, bornyl acetate], the “time of immobility, tail suspension test” value in assay [1] came out at 91.4 s. For the same compound, the “activation degree of microglia immunostained by Iba-1” value in the assay on Iba-1 is “consistent”. In addition, the “expression of CD11b protein (CRS-induced increase)” value with CD11b protein (amygdala) and in the assay with CD11b protein (hippocampus) was “significantly inhibited” each time.
